Where two headings read alike, the source gives them in different places.
B1: PMS134: dominant negative human PMS2 truncated at codon 134; N-terminal 133 amino acids (SEQ ID NO: 21) (protein, listed as Homo sapiens)
chain: MKQLPAATVRLLSSSQIITSVVSVVKELIENSLDAGATSVDVKLENYGFDKIEVRDNGEGIKAVDAPVMAMKYYTSKINSHEDLENLTTYGFRGEALGSICCIAEVLITTRTAADNFSTQYVLDGSGHILSQK
B2: PMSR3: human PMS2 related gene product (SEQ ID NO: 24) (protein, listed as Homo sapiens)
chain: MCPWRPRLGRRCMVSPREADLGPQKDTRLDLPRSPARAPREQNSLGEVDRRGPREQTRAPATAAPPRPLGSRGAEAAEPQEGLSATVSACFQEQQEMNTLQGPVSFKDVAVDFTQEEWRQLDPDEKIAYGDVMLENYSHLVSVGYDYHQAKHHHGVEVKEVEQGEEPWIMEGEFPCQHSPEPAKAIKPIDRKSVHQICSGPVVLSLSTAVKELVENSLDAGATNIDLKLKDYGVDLIEVSDNGCGVEEENFEGLISFSSETSHM

What was measured:
Format in all cases: cell-based
[1] = tested on: empty vector control cells
Procedure: (§1) T7-PMS134 cells and empty vector control cells were grown with IPTG for 48 hours and then diluted 1:50 in LB plus IPTG and increasing amounts of ethyl methane sulfonate (EMS) from 0, 1, 10, 50, 100, and 200 μM. 10 μL aliquots of culture (diluted in 300 μl LB) were plated out on LB agar plus ampicillin plates and grown overnight at 37 C. The next day plates were analyzed for cell viability as determined by colony formation. […] The 200 μM treatment was toxic for both lines.

[2] = tested on: T7-PMS134 BL21 cells; test: EMS toxicity, cell viability by colony formation
Procedure: as §1

[3] = tested on: BL21 cells; test: Kanamycin-resistance (hypermutability) assay in BL21; details: for KAN resistant cells: after 24 hr IPTG-induction; for KAN resistant clones: non-IPTG-induced conditions
Procedure: However, upon addition of the inducer IPTG, the cells express high-levels of T7 polymerase due to the IPTG-inducible element that drives expression of the polymerase that is resident within the genome of the BL21 cells (30). The BL21 cells are chloramphenicol resistant due to the plasmid that expresses lysozyme within the cell. To introduce the pT7-hPMS 134 or the pT7-hPMSR3 genes into BL21 cells, the cells were made competent by incubating the cells in ice cold 50 mM CaCl2 for 20 minutes, followed by concentrating the cells and adding super-coiled plasmid DNA as describe (Maniatis, T. et. al. Cold Spring Harbor Laboratory Press, Third Edition, 2001). Ampicillin resistant BL21 were selected on LB-agar plates [[…], 1.5% bactoagar, pH 7.0 (Difco)] plates containing 25 μg/ml chloramphenicol and 100 μg/ml ampicillin. The next day, bacterial colonies were picked and analyzed for vectors containing an intact pTACPMS134 or pTAC empty vector by restriction endonuclease digestion and sequence analysis.
Kanamycin-resistant assays using BL21 cells expressing the V5-tagged or untagged PMS134 or PMSR3 polypeptides were carried out as described above. BL21 bacterial cells that harbor the empty vector, pT7-PMS134 or pT7-PMSR3 were grown overnight in LB supplemented with 100 μg/ml ampicillin. The overnight cultures were diluted 1:100 into fresh ampicillin containing medium and grown for 2.5 hours at 37° C. with continuous shaking. When the cells reached an optical density (OD) of 0.6, measured at 600 nm, IPTG was added to each culture to a final concentration of 0.5 mM. Cells were incubated for 24, and 48 hours; at those time points cells were removed for SDS-PAGE analysis and plating (see above). BL21/pT7 (empty vector), BL21/pT7-PMS134, and BL21/pT7-R3 cells were plated onto LB plates, LB plates that contained 100 ug/ml ampicillin, and plates that contain 50 ug/ml Kanamycin. The equivalent of 1×10^7 cells/plate were spread onto the plates. BL21 cells that harbor the empty vector are capable of growth on LB plates as well as LB plates that contain 100 ug/ml ampicillin; that is as expected since the pT7 expression vector renders the cells ampicillin resistant. The vector only control is not capable of growth on Kanamycin.

[4] = tested on: kanamycin resistant pT7-PMS134 and pT7-PMSR3 colonies; test: Genetic stability of kanamycin resistance (revertants)
Procedure: As described in EXAMPLE 2 and 3, manipulation of the MMR pathway in microbes results in alterations within the host genome and the ability to select for a novel output traits. It is important that the mutations introduced as a result of defective MMR is genetically stable and passed on to daughter cells once a desired output pathway is established. To determine the genetic stability of mutations introduced into the microbial genome the following experiment was performed. Five independent colonies from pT7-PMS134 and pT7-PMSR3 that are kanamycin resistance were grown overnight from an isolated colony in 5 ml of LB. Next, 1 μL of the overnight culture from these cultures were inoculated into another 5 mL of LB and grown overnight to saturation. Under these growth conditions the microbial cells have divided over 20 generations. Therefore, if the new output trait generated by alteration of MMR is unstable, the cells should “revert” back from kanamycin resistance to kanamycin sensitivity. Cells were plated onto LB plates and incubated overnight at 37° C. Next, the colonies (about 1,000/plate) were replica plated to LB, LB^amp100, and LB^kan50 plates and incubated at 37° C. overnight. […] Extended culturing of cells and replica plating found no reversions of KAN resistance in cultures grown in the absence of IPTG, which produce no PMS134 as determined by western blot (data not shown).

Molecule	colony number ([1]; 1 uM EMS) [colonies]	colony number ([1]; 10 uM EMS) [colonies]	number of control cells ([1]; 50 μM EMS)	number of control cells ([1]; 100 μM EMS)	toxicity (in words) ([1]; 200 μM EMS)	colony number ([2]; 1 uM EMS) [colonies]	colony number ([2]; 10 uM EMS) [colonies]	colony number (in words) ([2]; 50 μM EMS)	reduction in colony number ([2]; 100 μM EMS) [fold]	toxicity (in words) ([2]; 200 μM EMS)	KAN resistant cells [3]	KAN resistant clones [3]	revertants of KAN resistance ([4]; continually grown in IPTG, out of 1200)	loss of KAN resistant clones ([4]; grown in the absence of IPTG)
CCOS(C)(=O)=O [EMS, ethyl methane sulfonate]	> 1000	> 1000	30	0	toxic	> 1000	> 1000	No difference	3	toxic				
B1											significant number	failed to produce any KAN resistant clones	5	No loss
B2											significant number	failed to produce any KAN resistant clones		
